Results: ChEMBL document CHEMBL1201862, “PubChem BioAssay data set” (2004)
Activity calls are given as the source filed them.

Legend:
[1] = molecular target: T1, Probable nicotinate-nucleotide adenylyltransferase (Staphylococcus aureus (strain N315), UniProt P65502); assay type: functional, Staphylococcus aureus subsp. aureus N315; conditions: read-out: IC50_Mean;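 as to IC50 Mean: confirmatory dose-response retesting of NadD inhibitor hits first found in an ultra-high-throughput screen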
[2] = molecular target: T1, Probable nicotinate-nucleotide adenylyltransferase; assay type: functional, Staphylococcus aureus subsp. aureus N315
[3] = molecular target: 26S proteasome non-ATPase regulatory subunit 14 (Homo sapiens, UniProt O00487); test: inhibition of proteasome subunit RPN11 – biochemical, fluorescence polarization, uHTS hits, confirmation (AID 602368); assay type: functional
[4] = molecular target: 72 kDa type IV collagenase (Homo sapiens, UniProt P08253); test: Dose Response validation of uHTS RPN11 inhibitor hits using a MMP-2 Fluorescence assay.; assay type: functional
[5] = molecular target: Prothrombin (Bos taurus, UniProt P00735); test: thrombin protease inhibitors – biochemical, fluorescence polarization, uHTS hits, dose response (AID 602369); assay type: functional
[6] = molecular target: T2, Beta-lactamase (Pseudomonas aeruginosa, UniProt Q79MP6); test: […] counterscreen for selective VIM-2 inhibitors: dose response biochemical high throughput screening assay to identify inhibitors of IMP-1 metallo-beta-lactamase.
T2 sequence (Q79MP6 whole entry): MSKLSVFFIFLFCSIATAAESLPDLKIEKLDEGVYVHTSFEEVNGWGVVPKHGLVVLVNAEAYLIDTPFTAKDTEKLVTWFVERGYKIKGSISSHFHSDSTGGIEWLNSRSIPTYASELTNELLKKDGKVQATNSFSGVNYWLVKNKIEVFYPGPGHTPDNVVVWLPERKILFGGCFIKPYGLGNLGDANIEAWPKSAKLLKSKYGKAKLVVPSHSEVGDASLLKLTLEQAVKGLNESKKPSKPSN

[7] = molecular target: Beta-lactamase (Salmonella choleraesuis (strain SC-B67), UniProt Q5J463); test: Epi-absorbance-based counterscreen for selective VIM-2 inhibitors: dose response biochemical high throughput screening assay to identify inhibitors of TEM-1 serine-beta-lactamase.
Beta-lactamase (Salmonella choleraesuis (strain SC-B67), UniProt Q5J463), sequence (Q5J463 whole entry): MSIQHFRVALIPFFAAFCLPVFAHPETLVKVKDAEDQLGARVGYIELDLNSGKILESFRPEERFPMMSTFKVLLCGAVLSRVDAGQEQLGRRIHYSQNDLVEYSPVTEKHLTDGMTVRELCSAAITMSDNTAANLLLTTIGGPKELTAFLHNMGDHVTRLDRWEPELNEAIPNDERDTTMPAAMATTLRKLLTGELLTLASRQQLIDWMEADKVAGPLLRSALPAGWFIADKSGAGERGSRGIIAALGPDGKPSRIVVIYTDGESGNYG

[8] = molecular target: T2, Beta-lactamase; test: inhibition of IMP-1 beta-lactamase activity – biochemical, epi-absorbance, selectivity assay for VIM-2 inhibitor project, dose response (AID 1920)
[9] = molecular target: Steroidogenic factor 1 (Homo sapiens, UniProt Q13285); test: Counterscreen for inverse agonists of the liver receptor homolog-1 (LRH-1; NR5A2): Luminescence-based cell-based high throughput dose response assay to identify inverse agonists of the Steroidogenic Factor 1 Nuclear Receptor (SF1; NR5A1).; assay type: functional
[10] = nonselective StAR promoter luciferase inhibitors – cell-based, luminescence, luciferase reporter, counter-screen for LRH-1 inverse agonist project, dose response (AID 651969); assay type: functional
[11] = molecular target: Nuclear receptor subfamily 5 group A member 2 (Homo sapiens, UniProt O00482); assay type: functional, cell-based;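 also: HEK293T cells transfected with LRH-1 and a StAR promoter luciferase reporter; potency for inhibitors that lower LRH-1 driven reporter light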
[12] = molecular target: T3, Fatty acid synthase (Homo sapiens, UniProt P49327); test: inhibition of human FAS-TE enzyme activity – biochemical, kinetic fluorescence intensity, dose response (AID 624326); assay type: functional;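 also: rate of fluorescence rise from hydrolysis of a fluorogenic O-methyl fluorescein ester substrate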
T3 sequence (P49327 whole entry): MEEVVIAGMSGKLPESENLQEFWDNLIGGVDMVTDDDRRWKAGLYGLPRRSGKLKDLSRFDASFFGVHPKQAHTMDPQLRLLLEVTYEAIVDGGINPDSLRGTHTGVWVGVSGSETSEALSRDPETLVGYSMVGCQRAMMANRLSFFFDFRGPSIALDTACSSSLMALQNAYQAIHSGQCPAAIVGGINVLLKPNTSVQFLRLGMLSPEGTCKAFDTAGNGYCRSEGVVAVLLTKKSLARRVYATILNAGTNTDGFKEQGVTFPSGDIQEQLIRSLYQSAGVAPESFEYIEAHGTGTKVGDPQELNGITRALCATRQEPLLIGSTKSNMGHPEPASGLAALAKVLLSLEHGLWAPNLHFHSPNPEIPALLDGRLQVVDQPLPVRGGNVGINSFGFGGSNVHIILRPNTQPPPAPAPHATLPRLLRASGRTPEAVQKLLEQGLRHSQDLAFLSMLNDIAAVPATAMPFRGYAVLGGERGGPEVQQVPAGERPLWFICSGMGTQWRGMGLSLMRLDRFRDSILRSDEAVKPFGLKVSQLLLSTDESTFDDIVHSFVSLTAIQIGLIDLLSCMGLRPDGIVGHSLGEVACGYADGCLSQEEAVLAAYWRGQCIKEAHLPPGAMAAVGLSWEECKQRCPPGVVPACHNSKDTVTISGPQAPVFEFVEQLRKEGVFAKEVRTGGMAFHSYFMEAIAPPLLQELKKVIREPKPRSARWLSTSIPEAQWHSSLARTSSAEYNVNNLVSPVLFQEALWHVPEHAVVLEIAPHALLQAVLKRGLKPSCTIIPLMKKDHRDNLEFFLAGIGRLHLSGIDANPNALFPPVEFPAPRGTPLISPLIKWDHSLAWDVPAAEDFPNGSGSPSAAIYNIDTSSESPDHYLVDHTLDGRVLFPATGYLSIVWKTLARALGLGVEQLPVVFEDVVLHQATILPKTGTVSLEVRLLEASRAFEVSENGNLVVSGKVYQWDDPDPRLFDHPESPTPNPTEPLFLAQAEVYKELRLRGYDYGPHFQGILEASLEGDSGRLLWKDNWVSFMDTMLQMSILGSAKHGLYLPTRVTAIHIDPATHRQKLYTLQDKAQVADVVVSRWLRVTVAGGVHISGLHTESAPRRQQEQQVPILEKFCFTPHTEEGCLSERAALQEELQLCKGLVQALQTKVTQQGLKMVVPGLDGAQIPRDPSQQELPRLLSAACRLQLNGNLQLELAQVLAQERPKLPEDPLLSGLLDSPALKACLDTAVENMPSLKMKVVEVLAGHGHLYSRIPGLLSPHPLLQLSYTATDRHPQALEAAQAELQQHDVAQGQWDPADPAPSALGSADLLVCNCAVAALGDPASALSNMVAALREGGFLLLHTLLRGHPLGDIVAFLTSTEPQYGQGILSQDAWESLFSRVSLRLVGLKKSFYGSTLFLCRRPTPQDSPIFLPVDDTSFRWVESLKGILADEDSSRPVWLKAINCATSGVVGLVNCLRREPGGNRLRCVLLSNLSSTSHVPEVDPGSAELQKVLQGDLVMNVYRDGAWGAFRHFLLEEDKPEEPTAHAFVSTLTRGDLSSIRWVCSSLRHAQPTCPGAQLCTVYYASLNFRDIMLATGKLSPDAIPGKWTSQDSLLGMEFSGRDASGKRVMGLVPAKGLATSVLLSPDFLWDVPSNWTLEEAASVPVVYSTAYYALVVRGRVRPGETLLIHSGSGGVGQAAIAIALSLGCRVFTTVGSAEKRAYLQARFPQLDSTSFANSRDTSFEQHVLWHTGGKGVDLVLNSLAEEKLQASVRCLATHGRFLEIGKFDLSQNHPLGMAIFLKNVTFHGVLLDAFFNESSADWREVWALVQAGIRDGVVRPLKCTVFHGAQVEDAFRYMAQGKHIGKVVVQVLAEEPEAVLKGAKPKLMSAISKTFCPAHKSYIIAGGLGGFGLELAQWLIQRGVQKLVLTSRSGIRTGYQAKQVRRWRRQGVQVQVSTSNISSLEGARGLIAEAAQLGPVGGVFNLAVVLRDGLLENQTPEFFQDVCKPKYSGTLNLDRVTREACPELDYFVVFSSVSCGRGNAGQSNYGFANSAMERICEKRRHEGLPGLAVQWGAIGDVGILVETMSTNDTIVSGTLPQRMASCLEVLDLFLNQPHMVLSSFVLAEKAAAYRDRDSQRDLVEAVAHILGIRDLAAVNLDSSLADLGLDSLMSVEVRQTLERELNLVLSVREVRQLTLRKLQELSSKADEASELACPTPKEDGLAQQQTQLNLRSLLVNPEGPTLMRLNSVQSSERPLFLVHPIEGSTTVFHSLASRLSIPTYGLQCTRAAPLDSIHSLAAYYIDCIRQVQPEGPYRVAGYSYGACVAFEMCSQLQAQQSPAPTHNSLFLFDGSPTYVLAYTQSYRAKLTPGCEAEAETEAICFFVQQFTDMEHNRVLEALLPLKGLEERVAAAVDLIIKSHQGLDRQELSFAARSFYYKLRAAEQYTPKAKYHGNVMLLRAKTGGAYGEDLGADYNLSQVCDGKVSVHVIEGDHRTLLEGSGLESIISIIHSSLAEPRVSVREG

[13] = molecular target: Beta Lactamase (Pseudomonas aeruginosa, UniProt Q932Y6); test: BLA reporter interference, concentration series – BLA reporter cells, FRET fluorescence, artefact control for NOD2-RIPK2 interaction inhibitor project, dose response (AID 651552); assay type: functional, cell-based
Beta Lactamase, sequence (Q932Y6 whole entry, the tested form may be a part): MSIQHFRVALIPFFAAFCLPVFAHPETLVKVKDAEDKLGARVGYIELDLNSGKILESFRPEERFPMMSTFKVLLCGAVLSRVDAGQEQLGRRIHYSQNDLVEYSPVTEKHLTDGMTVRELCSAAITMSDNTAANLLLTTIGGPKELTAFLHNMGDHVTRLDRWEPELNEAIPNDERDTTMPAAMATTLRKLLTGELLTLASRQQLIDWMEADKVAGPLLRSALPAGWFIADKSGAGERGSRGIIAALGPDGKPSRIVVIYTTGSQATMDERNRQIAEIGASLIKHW

[14] = Fluorescence-based cell-based high throughput dose response assay for inhibitors of the interaction of nucleotide-binding oligomerization domain containing 2 (NOD2) and the receptor-interacting serine-threonine kinase 2 (RIPK2).; assay type: functional; conditions: Homo sapiens
[15] = molecular target: T3, Fatty acid synthase; test: inhibition of human FAS-TE enzyme activity – biochemical, endpoint fluorescence intensity, uHTS hits, dose response (AID 624327); assay type: functional;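 also: fluorescence from hydrolysis of an O-methyl fluorescein acyl ester substrate by the enzyme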
[16] = system: A549; test: viability loss in A549 cells – cell-based, plate reader, cherry-pick samples, cytotoxicity control, dose response (AID 687028); assay type: functional; conditions: Homo sapiens
[17] = system: Vero; test: viability loss in Vero cells – cell-based, plate reader, cherry-pick samples, cytotoxicity control, dose response (AID 687020); assay type: functional; conditions: Chlorocebus sabaeus
[18] = anti-trypanosomal activity in BESM host cells – imaging, CA-I/72 strain, bovine embryo skeletal muscle, dry powder, dose response (AID 651885); assay type: functional, cell-based
[19] = Counterscreen for inhibitors of Trypanosoma brucei methionyl tRNA synthetase (MetRS): Luminescence-based cell-based high throughput dose response assay to identify compounds that are cytotoxic to Jurkat human T lymphocyte cells.; assay type: functional
[20] = molecular target: T4, Methionyl-tRNA synthetase, putative (Trypanosoma brucei brucei, UniProt Q38C91); assay type: functional, Trypanosoma brucei brucei strain 927/4 GUTat10.1
T4 sequence (Q38C91 whole entry): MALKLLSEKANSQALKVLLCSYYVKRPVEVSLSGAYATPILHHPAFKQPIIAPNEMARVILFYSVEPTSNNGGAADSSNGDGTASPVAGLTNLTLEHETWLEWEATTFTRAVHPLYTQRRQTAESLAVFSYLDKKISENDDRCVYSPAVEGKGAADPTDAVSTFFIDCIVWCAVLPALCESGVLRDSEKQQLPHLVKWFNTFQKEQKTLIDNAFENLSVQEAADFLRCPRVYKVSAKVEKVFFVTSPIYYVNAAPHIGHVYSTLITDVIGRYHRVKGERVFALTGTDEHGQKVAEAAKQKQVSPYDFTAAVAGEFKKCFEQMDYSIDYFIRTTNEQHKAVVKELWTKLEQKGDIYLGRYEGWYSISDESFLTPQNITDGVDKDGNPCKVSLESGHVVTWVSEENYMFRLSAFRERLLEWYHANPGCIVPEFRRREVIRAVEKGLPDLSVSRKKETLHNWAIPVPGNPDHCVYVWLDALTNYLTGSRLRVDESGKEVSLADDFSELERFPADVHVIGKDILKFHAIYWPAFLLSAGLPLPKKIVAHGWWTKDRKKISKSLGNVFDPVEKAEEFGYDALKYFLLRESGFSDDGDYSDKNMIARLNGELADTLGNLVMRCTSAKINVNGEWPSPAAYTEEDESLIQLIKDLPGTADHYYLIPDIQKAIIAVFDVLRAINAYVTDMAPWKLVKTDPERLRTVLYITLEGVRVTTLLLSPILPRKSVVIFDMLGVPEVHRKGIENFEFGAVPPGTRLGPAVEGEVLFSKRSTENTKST

[21] = molecular target: T4, Methionyl-tRNA synthetase, putative; assay type: functional, Trypanosoma brucei brucei strain 927/4 GUTat10.1; remark: listed apart in the source
[22] = molecular target: Glucose-6-phosphate 1-dehydrogenase (Homo sapiens, UniProt P11413); test: inhibition of Homo sapiens G6PD, dose series – biochemical, fluorescence, selectivity assay for P. falciparum G6PD inhibitor project, dose response (AID 504792); assay type: functional
[23] = viability loss in HeLa cells – cytotoxicity control for MgcRacGAP inhibitor project, dose response (AID 624300); assay type: functional
[24] = molecular target: SWI/SNF-related matrix-associated actin-dependent regulator of chromatin subfamily A member 2 (Homo sapiens, UniProt P51531); test: Luminescence-based cell-based high throughput dose response assay to identify activators of the function of SWI/SNF related, matrix associated, actin dependent regulator of chromatin, subfamily a, member 2 (SMARCA2, BRM).; assay type: functional
SWI/SNF-related matrix-associated actin-dependent regulator of chromatin subfamily A member 2, sequence (P51531 whole entry): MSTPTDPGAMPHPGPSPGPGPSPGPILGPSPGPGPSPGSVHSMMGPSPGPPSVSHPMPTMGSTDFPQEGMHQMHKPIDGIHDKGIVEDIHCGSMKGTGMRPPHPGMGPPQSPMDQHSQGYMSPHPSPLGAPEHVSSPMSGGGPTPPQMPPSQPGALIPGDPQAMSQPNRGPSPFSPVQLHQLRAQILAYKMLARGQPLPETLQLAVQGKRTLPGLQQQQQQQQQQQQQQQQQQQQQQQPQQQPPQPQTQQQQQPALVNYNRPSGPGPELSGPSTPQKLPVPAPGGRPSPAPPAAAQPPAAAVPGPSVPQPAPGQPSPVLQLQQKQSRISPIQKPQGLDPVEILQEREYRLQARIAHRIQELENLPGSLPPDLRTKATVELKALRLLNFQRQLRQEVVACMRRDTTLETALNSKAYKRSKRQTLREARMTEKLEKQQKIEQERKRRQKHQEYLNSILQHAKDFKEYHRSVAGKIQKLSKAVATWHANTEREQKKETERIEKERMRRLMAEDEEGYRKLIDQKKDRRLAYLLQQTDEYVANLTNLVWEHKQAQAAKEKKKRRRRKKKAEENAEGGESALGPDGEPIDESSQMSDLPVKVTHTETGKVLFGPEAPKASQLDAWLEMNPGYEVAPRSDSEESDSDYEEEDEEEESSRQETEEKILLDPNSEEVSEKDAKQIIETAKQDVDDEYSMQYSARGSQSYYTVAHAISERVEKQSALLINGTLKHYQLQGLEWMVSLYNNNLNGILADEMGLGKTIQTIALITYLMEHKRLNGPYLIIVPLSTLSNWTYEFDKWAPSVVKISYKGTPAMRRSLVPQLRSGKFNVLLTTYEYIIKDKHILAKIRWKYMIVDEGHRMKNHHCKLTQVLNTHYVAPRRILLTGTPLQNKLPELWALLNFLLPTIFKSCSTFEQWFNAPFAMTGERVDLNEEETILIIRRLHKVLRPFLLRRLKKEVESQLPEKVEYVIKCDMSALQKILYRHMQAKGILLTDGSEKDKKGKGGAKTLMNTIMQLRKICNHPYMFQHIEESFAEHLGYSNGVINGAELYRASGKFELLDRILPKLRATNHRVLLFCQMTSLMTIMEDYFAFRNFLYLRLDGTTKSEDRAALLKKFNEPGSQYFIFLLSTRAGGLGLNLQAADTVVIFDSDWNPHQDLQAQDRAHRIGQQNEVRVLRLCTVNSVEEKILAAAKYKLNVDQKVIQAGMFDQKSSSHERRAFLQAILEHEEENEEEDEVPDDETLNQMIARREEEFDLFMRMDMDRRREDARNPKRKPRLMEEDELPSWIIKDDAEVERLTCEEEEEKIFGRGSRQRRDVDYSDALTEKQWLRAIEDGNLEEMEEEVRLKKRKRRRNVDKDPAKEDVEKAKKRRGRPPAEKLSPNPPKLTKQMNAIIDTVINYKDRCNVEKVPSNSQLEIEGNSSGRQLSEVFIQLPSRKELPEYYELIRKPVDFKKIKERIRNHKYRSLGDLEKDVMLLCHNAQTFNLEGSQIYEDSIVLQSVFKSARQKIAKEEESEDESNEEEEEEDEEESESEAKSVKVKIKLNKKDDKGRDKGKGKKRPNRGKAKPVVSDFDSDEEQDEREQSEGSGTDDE

[25] = Counterscreen for activators of the function of SWI/SNF related, matrix associated, actin dependent regulator of chromatin, subfamily a, member 2 (SMARCA2, BRM): Luminescence-based cell-based high throughput dose response assay to identify non-selective compounds using the VP16 reporter assay.; assay type: functional
[26] = molecular target: T5, Rac GTPase-activating protein 1 (Homo sapiens, UniProt Q9H0H5); test: blockers of MgcRacGAP-driven Rac1 GTP hydrolysis – biochemical, ADP Hunter fluorescence, primary and confirmatory, confirmation (AID 624330); assay type: functional
T5 sequence (Q9H0H5 whole entry): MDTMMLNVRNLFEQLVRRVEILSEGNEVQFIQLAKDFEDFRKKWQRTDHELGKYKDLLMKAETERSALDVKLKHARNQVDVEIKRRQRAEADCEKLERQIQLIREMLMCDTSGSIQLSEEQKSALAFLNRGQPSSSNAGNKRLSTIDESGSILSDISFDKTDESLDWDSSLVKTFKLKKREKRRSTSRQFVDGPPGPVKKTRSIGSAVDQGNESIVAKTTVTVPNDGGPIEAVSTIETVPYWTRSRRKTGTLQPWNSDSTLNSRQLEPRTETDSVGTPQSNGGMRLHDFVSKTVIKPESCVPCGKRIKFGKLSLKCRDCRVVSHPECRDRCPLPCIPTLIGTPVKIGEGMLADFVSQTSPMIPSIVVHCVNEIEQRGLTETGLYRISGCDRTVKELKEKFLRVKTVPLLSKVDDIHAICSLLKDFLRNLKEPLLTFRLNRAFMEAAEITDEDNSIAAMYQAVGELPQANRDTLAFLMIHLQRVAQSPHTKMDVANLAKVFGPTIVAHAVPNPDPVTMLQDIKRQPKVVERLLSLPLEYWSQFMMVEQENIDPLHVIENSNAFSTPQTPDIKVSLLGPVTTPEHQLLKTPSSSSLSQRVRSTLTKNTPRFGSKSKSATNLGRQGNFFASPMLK

[27] = molecular target: T6, Hexokinase (Trypanosoma brucei, UniProt Q38C41); test: Confirmation assay for inhibitors of Trypanosoma brucei hexokinase 1-Analogue-first series. [Related pubchem assays (depositor defined):AID1430, AID1632, AID2516, AID2560, AID2579, AID2600, AID449725, AID492951]; assay type: functional
T6 sequence (Q38C41 whole entry): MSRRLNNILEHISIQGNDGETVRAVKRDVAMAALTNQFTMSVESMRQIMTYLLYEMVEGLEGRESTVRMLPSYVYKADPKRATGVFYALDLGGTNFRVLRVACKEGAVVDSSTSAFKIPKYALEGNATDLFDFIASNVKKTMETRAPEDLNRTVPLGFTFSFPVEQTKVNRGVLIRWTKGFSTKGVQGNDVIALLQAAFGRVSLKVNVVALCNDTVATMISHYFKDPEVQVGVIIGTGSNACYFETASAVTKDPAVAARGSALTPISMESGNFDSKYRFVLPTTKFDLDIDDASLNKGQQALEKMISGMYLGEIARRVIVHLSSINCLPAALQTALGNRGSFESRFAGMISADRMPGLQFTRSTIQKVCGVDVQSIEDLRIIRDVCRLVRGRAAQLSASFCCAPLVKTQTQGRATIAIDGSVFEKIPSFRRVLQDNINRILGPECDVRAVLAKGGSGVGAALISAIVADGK

T1 sequence (P65502 whole entry): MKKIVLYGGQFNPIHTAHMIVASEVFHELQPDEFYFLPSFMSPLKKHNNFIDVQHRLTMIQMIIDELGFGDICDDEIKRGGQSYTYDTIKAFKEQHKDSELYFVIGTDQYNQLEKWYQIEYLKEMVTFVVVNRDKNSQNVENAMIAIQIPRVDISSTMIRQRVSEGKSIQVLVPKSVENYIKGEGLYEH

## CCc1cccc2c1NC(=O)C21N2CCCC2C(C(=O)c2ccc3ccccc3c2)C12C(=O)Nc1ccccc12 (stereo not given)
[1]
  IC50: 35.7 µM (active)
[2]
  IC50: 16.2 µM (active)

## O=c1[nH]c(CSc2ncnc3sccc23)nc2cc(C(F)(F)F)ccc12
[3]
  IC50: 32 µM (active)
[4]
  IC50: > 100 µM (inactive)
[5]
  IC50: 60.8 µM (active)

## CCOC(=O)N=S(N)(=O)c1ccccc1 (stereo not given)
[6]
  IC50: > 59.6 µM (inactive)
[7]
  IC50: > 59.6 µM (inactive)
[8]
  IC50: > 59.6 µM (inactive)

## COc1ccc(OCCNC(=O)C2(C)CCN2Cc2ccc(SC)cc2)cc1 (stereo not given)
[9]
  IC50: 3.51 µM (active)
[10]
  IC50: 35.9 µM (inactive)
[11]
  IC50: 5.57 µM (active)

## CCOC(=O)[C@]12Cc3ccc(C)cc3[C@H]1N(C1CCCCC1)C(=O)c1cc(OC)ccc12
[12]
  IC50: 5.14 µM (active)
[13]
  IC50: 19.1 µM (inactive)
[14]
  IC50: 2.32 µM (active)
[15]
  IC50: 5.7 µM (active)

## CCC(C)[C@H](NC(=O)[C@@H]1Cc2ccccc2CN1)C(=O)NCc1ccc(C)cc1 (stereo not given in full)
[16]
  AC50: 20.9 µM (active)
[17]
  AC50: 29.5 µM (active)

## CC(C)N(C)C(=O)c1cccc(NC(=O)c2ccncc2)c1OCCCN(C)C(=O)OC(C)(C)C
[18]
  IC50: 10.2 µM (inconclusive)

## C[C@@H]1CN([C@@H](C)CO)C(=O)c2cccc(NC(=O)c3ccncc3)c2O[C@H]1CN(C)Cc1ccc(C(F)(F)F)cc1
[18]
  IC50: 10 µM (inconclusive)

## C/C(CC(=O)Nc1cccc(Br)c1)=N\NC(=O)c1ccc(O)cc1O
[19]
  IC50: 83.3 µM (inactive)
[20]
  IC50: 0.756 µM (active)
[21]
  IC50: 1.23 µM (active)

## COc1ccc(-n2sc3ccccc3c2=O)cc1
[22]
  IC50: 9.6 µM (active)
[23]
  CC50: 79.7 µM (active)
[13]
  IC50: 27 µM (inactive)
[24]
  EC50: > 91.2 µM (inactive)
[25]
  EC50: > 91.2 µM (inactive)
[26]
  IC50: 34.5 µM (active)
[14]
  IC50: 5.79 µM (active)
[27]
  IC50: 5.35 µM (active)
